The source of these data is ChEMBL document CHEMBL5728097, “Amino pyrazolopyrimidine compound used as neurotrophic factor tyrosine kinase receptor inhibitor” (2020).

Molecules are shown by their SMILES.

The target of the assay is High affinity nerve growth factor receptor (Homo sapiens, UniProt P04629). Nature of the assay: Inhibitory Activity Assay: TrkA, TrkB and TrkC:A testing platform for TrkA, TrkB and TrkC kinase activity was established based on Homogeneous Time-Resolved Fluorescence (HTRF) assay, and the activities of the compounds were tested using the platform. The compounds were subjected to three-fold gradient dilution with 100% DMSO with a starting concentration of 1 mM (11 concentrations in total). 4 μL of diluted sample for each concentration was added to 96 μL of reaction buffer (50 mM HEPES, pH7.4, 5 mM MgCl2, 1 mM NaVO3, 0.001% Tween-20, 0.01% BSA and 1 mM DTT) and mixed homogeneously to be used as a 4* compound. The reaction buffer was used to formulate 2* TrkA, TrkB and TrkC kinases (purchased from Carna Biosciences 08-186, 08-187, 08-197, and the final concentrations thereof were 0.5 nM, 0.1 nM, and 1 nM, respectively) and 4* substrate mixture (ATP+TK peptide) (wherein the final concentrations of ATP were 40 μM, 50 μM, and 20 μM, respectively; TK peptide, HTRF® KinEASE™-TK, was purchased from Cisbio, and the final concentration thereof was 100 nM) for use. 2.5 μL of the 4* compound was added to a 384-well plate (OptiPlate-384, purchased from PerkinElmer), and then 5 μL of the 2* TrkA, TrkB and TrkC kinases were added, and mixed homogeneously by centrifugation. Then 2.5 μL of the 4* substrate mixture was added to initiate the reaction (the total reaction volume is 10 μL). The 384-well plate was placed in an incubator and incubated for 60 min at 23° C. Then the reaction was terminated by adding 5 μL of Eu3+ cryptate-labeled anti-phosphotyrosine antibody (HTRF® KinEASE™-TK, purchased from Cisbio), and 5 μL of Streptavidin-XL-665 (HTRF® KinEASE™-TK, purchased from Cisbio). After incubated for 1 hr in the incubator, the fluorescence values were read on Envision (purchased from PerkinElmer).
Sequence of High affinity nerve growth factor receptor (P04629 whole entry): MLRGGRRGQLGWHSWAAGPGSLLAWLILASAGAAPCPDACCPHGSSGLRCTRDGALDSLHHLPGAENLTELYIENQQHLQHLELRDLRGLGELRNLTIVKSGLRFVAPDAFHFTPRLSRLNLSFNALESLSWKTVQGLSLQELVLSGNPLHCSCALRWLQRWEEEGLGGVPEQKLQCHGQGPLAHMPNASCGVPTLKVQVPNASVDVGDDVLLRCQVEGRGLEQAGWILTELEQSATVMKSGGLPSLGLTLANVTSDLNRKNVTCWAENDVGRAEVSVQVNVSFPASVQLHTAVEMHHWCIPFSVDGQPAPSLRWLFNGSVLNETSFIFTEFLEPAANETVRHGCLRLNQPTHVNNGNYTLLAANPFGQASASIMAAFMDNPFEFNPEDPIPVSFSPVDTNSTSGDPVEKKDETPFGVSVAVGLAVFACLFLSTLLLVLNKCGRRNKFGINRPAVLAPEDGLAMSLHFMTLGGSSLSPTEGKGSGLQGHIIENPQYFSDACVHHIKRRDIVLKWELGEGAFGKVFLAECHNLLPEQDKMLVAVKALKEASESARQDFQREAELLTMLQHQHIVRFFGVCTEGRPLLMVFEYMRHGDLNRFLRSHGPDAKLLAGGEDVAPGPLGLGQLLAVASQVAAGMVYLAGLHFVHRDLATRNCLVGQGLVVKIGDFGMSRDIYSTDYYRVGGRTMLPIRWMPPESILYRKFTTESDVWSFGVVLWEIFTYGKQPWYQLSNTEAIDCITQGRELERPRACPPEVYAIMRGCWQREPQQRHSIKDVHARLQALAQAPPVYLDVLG

As for `CC(C)(C)ONC(=O)c1c(N)nn2ccc(N3CCC[C@@H]3c3cc(F)ccc3F)nc12`, the IC50 (commonly the midpoint of a concentration-inhibition curve) is less than 1 nM. On to `N#Cc1c(N)nn2ccc(N3C[C@@H](F)C[C@@H]3c3cc(F)ccc3F)nc12`, for which the IC50 is less than 1 nM. For `Nc1nn2ccc(N3CCC[C@@H]3c3cc(F)ccc3F)nc2c1Br`, the half-maximal inhibitory concentration (IC50) is less than 25 nM.

As for `CCOC(=O)c1c(N)nn2ccc(N3C[C@H](O)CC3c3cc(F)ccc3F)nc12` (stereo partly specified), the IC50 was less than 25 nM.

For `CC1(C)OCC(CONC(=O)c2c(N)nn3ccc(N4CCC[C@@H]4c4cc(F)ccc4F)nc23)O1` (stereo partly specified), the IC50 was less than 1 nM.

Consider `CCOC(=O)c1c(N)nn2ccc(N3C[C@@H](O)CC3c3cc(F)ccc3F)nc12` (stereo partly specified), for which the half-inhibitory concentration (IC50) was less than 500 nM. Then `Nc1nn2ccc(N3CCC[C@@H]3c3cc(F)ccc3F)nc2c1C(=O)NOCCO`, with less than 1 nM; and `NC(=O)c1c(N)nn2ccc(N3C[C@@H](O)C[C@@H]3c3cc(F)ccc3F)nc12`, with less than 25 nM. For the compound `CC(C)(CO)ONC(=O)c1c(N)nn2ccc(N3CCC[C@@H]3c3cc(F)ccc3F)nc12`, the half-inhibitory concentration (IC50) is less than 1 nM. As to `Nc1nn2ccc(N3CCC[C@@H]3c3cc(F)ccc3F)nc2c1C(=O)NC1CCC(O)CC1` (stereo partly specified), the IC50 is less than 1 nM. For `CN(C)C(=O)c1c(N)nn2ccc(N3CCC[C@@H]3c3cc(F)ccc3F)nc12`, the IC50 was less than 25 nM.
